{
  "source": "patent US9433596B2",
  "about": "“Pharmaceutical composition comprising N-acetyl-L-cysteine or its derivatives for treating anxiety disorder” (SNU R&DB FOUNDATION, priority 2010, dated 2016)",
  "key": {"Sprague-Dawley Rats [1]": {"system": "Sprague-Dawley Rats", "assay": "Fear memory renewal test, NAC administered one day before the renewal test", "assay_type": "in vivo", "settings": "NAC 200 mg/kg peritoneally on the 7th day after 4 days of extinction training, result on the 9th day after fear conditioning, vs control", "method": "Sprague-Dawley Rats (8-9 weeks old, from Samtaco, Korea) were maintained with free access to water and food with 12 hour dark/light cycles (lights off at 09:00 hrs). Group of three to six animals were used for each experiment. (26 in total) For fear conditioning, the rats were presented with a tone (2.8 kHz, 85 dB) co-terminating with an electrical shock (1.0 mA, 1 s) three times at an interval of 100 sec. The rats were returned to the cage 1 minute after the last shock has been applied. Three days after the conditioning, the exposure therapy was done in a chamber distinct from the conditioning chamber for both extinction training and tone tests. 10 tones were presented at an interval of 100 sec without shocks, during which the freezing responses were measured to determine the reduction of fear memories. Unpaired, two-tailed T-test was used to analyze the results. The renewal test was done on day 12 after the conditioning was completed. The same chamber and place as it was used for the fear conditioning were used for the renewal. The rats with the extinction training were placed in the conditioning chamber and were left undisturbed for 10 minutes. Then the fear memory was recalled by presenting the rats with a tone for 30 sec. […] The freezing was defined as immobility except for respiratory movements and was quantified by trained observers who were blind to the experimental groups. […]"}, "[2]": {"settings": "cited from earlier work"}, "Sprague-Dawley Rats [3]": {"system": "Sprague-Dawley Rats", "assay": "Fear memory renewal test, NAC administered during extinction training (exposure therapy)", "assay_type": "in vivo", "settings": "NAC 200 mg/kg peritoneally once a day, days 3 to 5 after conditioning, 2.5 hours before exposure therapy, renewal tests on day 12 and day 21, vs saline control", "method": "Sprague-Dawley Rats (8-9 weeks old, from Samtaco, Korea) were maintained with free access to water and food with 12 hour dark/light cycles (lights off at 09:00 hrs). Group of three to six animals were used for each experiment. (26 in total) For fear conditioning, the rats were presented with a tone (2.8 kHz, 85 dB) co-terminating with an electrical shock (1.0 mA, 1 s) three times at an interval of 100 sec. The rats were returned to the cage 1 minute after the last shock has been applied. Three days after the conditioning, the exposure therapy was done in a chamber distinct from the conditioning chamber for both extinction training and tone tests. 10 tones were presented at an interval of 100 sec without shocks, during which the freezing responses were measured to determine the reduction of fear memories. Unpaired, two-tailed T-test was used to analyze the results. […] The negative control was only received physiological saline. The renewal test was done on day 12 after the conditioning was completed. The same chamber and place as it was used for the fear conditioning were used for the renewal. […] The fear memory recalled was determined by measuring the freezing response as described before (Kim et al., 2007, PNAS 104 (52): 20955-960). The freezing was defined as immobility except for respiratory movements and was quantified by trained observers who were blind to the experimental groups. […]"}, "Sprague-Dawley Rats [4]": {"system": "Sprague-Dawley Rats", "assay": "Fear memory renewal test, NAC administered immediately before the renewal test", "assay_type": "in vivo", "settings": "NAC 200 mg/kg peritoneally 2.5 hours before the renewal test on the 7th and 8th day, result on the 8th day after fear conditioning, vs control", "method": "Sprague-Dawley Rats (8-9 weeks old, from Samtaco, Korea) were maintained with free access to water and food with 12 hour dark/light cycles (lights off at 09:00 hrs). Group of three to six animals were used for each experiment. (26 in total) For fear conditioning, the rats were presented with a tone (2.8 kHz, 85 dB) co-terminating with an electrical shock (1.0 mA, 1 s) three times at an interval of 100 sec. The rats were returned to the cage 1 minute after the last shock has been applied. Three days after the conditioning, the exposure therapy was done in a chamber distinct from the conditioning chamber for both extinction training and tone tests. 10 tones were presented at an interval of 100 sec without shocks, during which the freezing responses were measured to determine the reduction of fear memories. Unpaired, two-tailed T-test was used to analyze the results. The renewal test was done on day 12 after the conditioning was completed. The same chamber and place as it was used for the fear conditioning were used for the renewal. […] The fear memory recalled was determined by measuring the freezing response as described before (Kim et al., 2007, PNAS 104 (52): 20955-960). The freezing was defined as immobility except for respiratory movements and was quantified by trained observers who were blind to the experimental groups. […]"}, "[5]": {"settings": "general statement, no test described; cited from earlier work"}},
  "data": [
    {"smiles": "CC(=O)N[C@@H](CS)C(=O)O", "note": "[NAC, N-acetyl-L-cysteine]", "values": [
      {"measurement": "renewal of the fear memory (freezing response)", "setting": "Sprague-Dawley Rats [1]; FIG. 4", "value": "the renewal of the fear memory was blocked"},
      {"measurement": "renewal of the fear memory (freezing response)", "setting": "Sprague-Dawley Rats [1]; FIG. 4, listed as N-Acetyl-L-cysteine", "value": "the return of fear-memories was prevented"},
      {"measurement": "pKa", "setting": "[2]", "value": 3.24},
      {"measurement": "renewal of the fear memory (freezing response)", "setting": "Sprague-Dawley Rats [3]; FIG. 2", "value": "the renewal of the fear memory was blocked"},
      {"measurement": "renewal of the fear memory (freezing response)", "setting": "Sprague-Dawley Rats [3]; FIG. 2, listed as N-Acetyl-L-cysteine", "value": "the return of fear-memories was prevented and the effect was long-lasted"},
      {"measurement": "renewal of the fear memory (freezing response)", "setting": "Sprague-Dawley Rats [4]; FIG. 6", "value": "the renewal of the fear memory was blocked"},
      {"measurement": "renewal of the fear memory (freezing response)", "setting": "Sprague-Dawley Rats [4]; FIG. 6, listed as N-Acetyl-L-cysteine", "value": "prevented the return of fear-memories"},
      {"measurement": "blood-brain barrier penetration", "setting": "[5]", "value": "penetrate a blood-brain barrier"}
    ]}
  ]
}
